Measurements published in ChEMBL document CHEMBL1146186, “Synthesis and biological evaluation of type VI beta-turn templated RGD peptidomimetics” (Bioorg Med Chem Lett, 2006).

Experiments:
[1] = biological target: Integrin alpha-V/beta-5 (Homo sapiens) (UniProt P06756+P18084); assay: Inhibition of alpha-V-beta-5 receptor; format: protein-complex assay
[2] = biological target: Integrin alpha-V/beta-3 (Homo sapiens) (UniProt P05106+P06756); assay: Inhibition of alpha-V-beta-3 receptor; format: protein-complex assay

Activity [1] [µM] | Activity [2] [µM] | SMILES
0.538 | 0.159 | N=C(N)NCCC[C@@H]1NC(=O)[C@H]2C/C=C\C[C@H](NC(=O)[C@H](CC(=O)O)NC(=O)CNC1=O)C(=O)N2
> 5 | 0.28 | N=C(N)NCCC[C@@H]1NC(=O)[C@H]2CCCC[C@H](NC(=O)[C@H](CC(=O)O)NC(=O)CNC1=O)C(=O)N2
> 5 | 0.925 | N=C(N)NCCC[C@@H]1NC(=O)[C@@H]2C/C=C\C[C@@H](NC(=O)[C@H](CC(=O)O)NC(=O)CNC1=O)C(=O)N2
> 5 | 0.615 | N=C(N)NCCC[C@@H]1NC(=O)[C@@H]2CCCC[C@@H](NC(=O)[C@H](CC(=O)O)NC(=O)CNC1=O)C(=O)N2
